From patent US9340590B2 (priority 2011, dated 2016)
Where two headings read alike, the source gives them in different places. Positions of bridges follow the written chain, without caps; N, C: chain ends. Non-standard residues stand in square brackets, D forms with d. Residues, ends and D or L forms follow the SMILES beside them. 1Nal = N[C@@H](Cc1cccc2ccccc12)C(=O)O

What was measured:
hNav1.3 = hNav1.3 (Homo sapiens, UniProt Q9NY46); test: cell-based; settings: IonWorks Quattro, read-out: IWQ Use Nav1.3
hNav1.3, sequence (Q9NY46 whole entry, looked up): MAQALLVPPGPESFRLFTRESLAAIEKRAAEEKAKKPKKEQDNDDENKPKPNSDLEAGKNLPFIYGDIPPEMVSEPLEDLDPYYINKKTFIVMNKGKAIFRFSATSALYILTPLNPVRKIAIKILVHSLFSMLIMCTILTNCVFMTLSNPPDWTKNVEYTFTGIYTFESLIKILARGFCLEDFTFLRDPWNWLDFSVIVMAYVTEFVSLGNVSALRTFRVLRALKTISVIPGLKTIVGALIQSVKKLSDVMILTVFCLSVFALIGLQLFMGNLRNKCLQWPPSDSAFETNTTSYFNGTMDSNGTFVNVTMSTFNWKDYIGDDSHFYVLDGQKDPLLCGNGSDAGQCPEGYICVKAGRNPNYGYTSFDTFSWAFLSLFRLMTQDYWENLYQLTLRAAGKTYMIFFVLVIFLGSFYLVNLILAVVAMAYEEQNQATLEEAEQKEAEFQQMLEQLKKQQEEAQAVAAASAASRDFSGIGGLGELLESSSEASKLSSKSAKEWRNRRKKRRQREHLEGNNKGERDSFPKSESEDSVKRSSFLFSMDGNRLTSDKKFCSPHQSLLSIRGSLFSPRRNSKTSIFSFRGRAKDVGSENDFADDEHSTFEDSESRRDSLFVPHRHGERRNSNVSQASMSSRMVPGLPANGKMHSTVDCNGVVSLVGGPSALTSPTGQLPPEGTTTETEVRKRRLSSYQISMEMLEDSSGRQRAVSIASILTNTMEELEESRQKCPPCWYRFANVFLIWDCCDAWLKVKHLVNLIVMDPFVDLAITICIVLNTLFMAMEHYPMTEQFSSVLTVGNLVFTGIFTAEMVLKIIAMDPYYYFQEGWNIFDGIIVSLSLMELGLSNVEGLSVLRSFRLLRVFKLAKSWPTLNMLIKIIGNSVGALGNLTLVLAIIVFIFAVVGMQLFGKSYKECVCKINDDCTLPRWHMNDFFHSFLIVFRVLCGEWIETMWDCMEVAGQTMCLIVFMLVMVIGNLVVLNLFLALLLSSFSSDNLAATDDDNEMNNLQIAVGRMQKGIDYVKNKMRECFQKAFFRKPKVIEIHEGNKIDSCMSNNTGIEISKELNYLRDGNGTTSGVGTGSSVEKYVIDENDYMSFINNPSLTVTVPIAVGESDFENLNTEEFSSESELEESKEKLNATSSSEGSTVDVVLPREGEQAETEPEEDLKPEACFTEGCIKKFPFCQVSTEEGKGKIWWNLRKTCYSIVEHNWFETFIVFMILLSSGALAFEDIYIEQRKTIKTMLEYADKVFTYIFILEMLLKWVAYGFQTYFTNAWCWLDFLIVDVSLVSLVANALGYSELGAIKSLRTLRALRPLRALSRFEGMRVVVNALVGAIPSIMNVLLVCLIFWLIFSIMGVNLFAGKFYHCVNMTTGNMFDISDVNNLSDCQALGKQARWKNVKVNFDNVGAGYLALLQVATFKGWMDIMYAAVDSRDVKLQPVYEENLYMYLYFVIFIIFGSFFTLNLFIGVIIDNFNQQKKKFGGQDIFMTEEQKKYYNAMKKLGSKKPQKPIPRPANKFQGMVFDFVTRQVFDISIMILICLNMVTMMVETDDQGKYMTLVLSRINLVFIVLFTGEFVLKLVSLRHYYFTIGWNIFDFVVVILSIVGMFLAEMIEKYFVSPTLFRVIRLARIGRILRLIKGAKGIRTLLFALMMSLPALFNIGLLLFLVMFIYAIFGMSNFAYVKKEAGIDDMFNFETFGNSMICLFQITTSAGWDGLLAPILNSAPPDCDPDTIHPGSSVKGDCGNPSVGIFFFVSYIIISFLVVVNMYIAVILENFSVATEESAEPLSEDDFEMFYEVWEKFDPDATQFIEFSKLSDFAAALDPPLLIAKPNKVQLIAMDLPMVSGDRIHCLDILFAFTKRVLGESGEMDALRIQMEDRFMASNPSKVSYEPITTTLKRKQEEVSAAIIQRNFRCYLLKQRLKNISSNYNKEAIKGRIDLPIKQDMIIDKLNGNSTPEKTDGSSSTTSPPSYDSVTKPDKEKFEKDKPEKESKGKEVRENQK

hNav1.5 = hNav1.5 (Homo sapiens, UniProt Q14524); test: cell-based
hNav1.5, sequence (Q14524 whole entry, looked up): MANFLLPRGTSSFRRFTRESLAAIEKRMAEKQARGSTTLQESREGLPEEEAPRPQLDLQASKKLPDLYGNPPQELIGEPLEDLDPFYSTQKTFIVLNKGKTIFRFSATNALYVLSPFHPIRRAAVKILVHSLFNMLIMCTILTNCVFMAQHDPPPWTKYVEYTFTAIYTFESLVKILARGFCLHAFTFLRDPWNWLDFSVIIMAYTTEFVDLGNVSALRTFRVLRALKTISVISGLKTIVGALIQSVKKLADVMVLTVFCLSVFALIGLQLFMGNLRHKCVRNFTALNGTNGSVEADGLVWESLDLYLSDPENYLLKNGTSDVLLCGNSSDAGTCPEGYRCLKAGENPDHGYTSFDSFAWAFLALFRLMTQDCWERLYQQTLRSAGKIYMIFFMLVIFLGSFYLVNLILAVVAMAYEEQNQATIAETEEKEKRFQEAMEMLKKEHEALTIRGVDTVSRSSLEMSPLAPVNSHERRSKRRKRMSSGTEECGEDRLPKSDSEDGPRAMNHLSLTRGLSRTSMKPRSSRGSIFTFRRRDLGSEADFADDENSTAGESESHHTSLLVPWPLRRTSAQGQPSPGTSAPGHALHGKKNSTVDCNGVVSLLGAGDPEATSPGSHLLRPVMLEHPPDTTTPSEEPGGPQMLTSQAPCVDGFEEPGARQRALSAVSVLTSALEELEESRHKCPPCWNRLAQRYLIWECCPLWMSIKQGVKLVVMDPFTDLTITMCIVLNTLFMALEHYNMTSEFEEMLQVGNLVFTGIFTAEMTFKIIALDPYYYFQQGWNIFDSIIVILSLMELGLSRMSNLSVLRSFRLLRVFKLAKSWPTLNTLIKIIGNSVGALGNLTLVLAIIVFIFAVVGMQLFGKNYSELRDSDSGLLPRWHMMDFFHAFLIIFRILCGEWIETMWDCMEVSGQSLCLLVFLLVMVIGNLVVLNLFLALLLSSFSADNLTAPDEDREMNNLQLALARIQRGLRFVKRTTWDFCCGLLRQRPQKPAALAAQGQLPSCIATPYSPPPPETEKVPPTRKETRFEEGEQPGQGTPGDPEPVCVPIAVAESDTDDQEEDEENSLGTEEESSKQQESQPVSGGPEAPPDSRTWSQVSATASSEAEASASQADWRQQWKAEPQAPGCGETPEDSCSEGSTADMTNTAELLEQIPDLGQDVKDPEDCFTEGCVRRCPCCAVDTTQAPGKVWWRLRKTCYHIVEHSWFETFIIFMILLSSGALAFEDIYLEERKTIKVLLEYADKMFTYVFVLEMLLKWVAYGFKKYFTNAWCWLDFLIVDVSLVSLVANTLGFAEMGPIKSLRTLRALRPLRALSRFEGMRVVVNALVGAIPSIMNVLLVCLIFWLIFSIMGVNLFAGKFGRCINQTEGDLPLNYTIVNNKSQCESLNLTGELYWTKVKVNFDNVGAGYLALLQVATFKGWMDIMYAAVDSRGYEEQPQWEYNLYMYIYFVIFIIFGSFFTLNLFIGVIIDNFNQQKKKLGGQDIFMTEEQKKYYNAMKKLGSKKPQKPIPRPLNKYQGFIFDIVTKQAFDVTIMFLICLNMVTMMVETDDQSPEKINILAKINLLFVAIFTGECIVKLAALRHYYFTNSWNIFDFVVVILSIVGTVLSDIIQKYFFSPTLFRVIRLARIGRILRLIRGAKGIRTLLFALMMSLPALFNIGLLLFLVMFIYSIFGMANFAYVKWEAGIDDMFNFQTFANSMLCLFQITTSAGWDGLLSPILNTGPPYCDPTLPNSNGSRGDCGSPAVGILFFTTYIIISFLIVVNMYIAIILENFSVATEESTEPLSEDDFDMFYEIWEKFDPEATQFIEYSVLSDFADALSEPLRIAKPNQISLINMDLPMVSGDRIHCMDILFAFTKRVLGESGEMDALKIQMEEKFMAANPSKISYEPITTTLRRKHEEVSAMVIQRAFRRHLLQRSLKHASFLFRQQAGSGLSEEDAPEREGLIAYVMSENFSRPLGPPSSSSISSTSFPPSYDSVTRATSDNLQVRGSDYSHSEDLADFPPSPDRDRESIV

[1] = IonWorks Quattro, Use, read-out: IWQ Use Nav1.5
[2] = clamped to −110 mV, depolarized to −10 mV, 5 min after compound, n=2
[3] = IonWorks Quattro, clamped to −110 mV, depolarized to −10 mV, 5 min after compound, n=2, read-out: IWQ Use Nav1.5

Row | SMILES | IC50 (hNav1.3; Use) | IC50 (hNav1.3; [2]) | IC50 (hNav1.5; [3]) | other results
1 | CC[C@H](C)[C@@H]1NC(=O)[C@@H]2CSSC[C@@H]3NC(=O)[C@H](C(C)C)NC(=O)[C@H](CC(C)C)NC(=O)[C@H](CC(N)=O)NC(=O)[C@@H]4CCCN4C(=O)[C@H](CCCNC(=N)N)NC(=O)[C@H](CSSC[C@H](NC(=O)[C@@H](N)CC(=O)O)C(=O)N[C@@H](CC(C)C)C(=O)NCC(=O)N[C@@H](Cc4ccccc4)C(=O)N[C@@H](CCSC)C(=O)N[C@@H](CCCNC(=N)N)C(=O)N[C@@H](CCCCN)C(=O)N2)NC(=O)[C@H](CSSC[C@@H](C(=O)N[C@@H](CCCCN)C(=O)N[C@@H](Cc2ccc(O)cc2)C(=O)N[C@H](C(=O)N[C@@H](Cc2ccccc2)C(N)=O)C(C)C)NC(=O)[C@H](Cc2cccc4ccccc24)NC(=O)[C@H](CCCCN)NC(=O)[C@H](Cc2cnc[nH]2)NC(=O)[C@H]([C@@H](C)O)NC(=O)[C@H](CCCNC(=N)N)NC(=O)[C@H](CO)NC3=O)NC(=O)[C@H](CCCCN)NC(=O)[C@H](CC(=O)O)NC(=O)[C@H](CC(N)=O)NC(=O)[C@H](CC(=O)O)NC(=O)[C@@H]2CCCN2C1=O [SEQ ID NO: 79, [1-Nal29]GpTx-1] (H-DCLGFMRKCIPDNDKCCRPNLVCSRTHK[1Nal]CKYVF-NH2; disulfide 2-17, 9-23, 16-30) | – | – | – | IC50 (hNav1.3; Table 24, use, […]): 1.55 µM; IC50 (hNav1.5; Table 24, IonWorks Quattro, use, […], read-out: IWQ Use Nav1.5): 9.25 µM
2 | CSCC[C@@H]1NC(=O)[C@H](Cc2ccccc2)NC(=O)CNC(=O)[C@H](CC(C)C)NC(=O)[C@@H](NC(=O)[C@@H](N)CC(=O)O)CSSC[C@@H]2NC(=O)[C@@H]3CSSC[C@@H](C(=O)N[C@@H](CCCCN)C(=O)N[C@@H](Cc4ccc(O)cc4)C(=O)N[C@H](C(=O)N[C@@H](Cc4ccccc4)C(N)=O)C(C)C)NC(=O)[C@H](Cc4c[nH]c5ccccc45)NC(=O)[C@H](CCCCN)NC(=O)[C@H](Cc4cnc[nH]4)NC(=O)[C@H]([C@@H](C)O)NC(=O)[C@H](CCCNC(=N)N)NC(=O)[C@H](CO)NC(=O)[C@H](CSSC[C@H](NC(=O)[C@H](CCCCN)NC(=O)[C@H](CCCNC(=N)N)NC1=O)C(=O)N[C@@H](CC(=O)O)C(=O)N1CCC[C@H]1C(=O)N[C@@H](CC(=O)O)C(=O)N[C@@H](CC(N)=O)C(=O)N[C@@H](CC(=O)O)C(=O)N[C@@H](CCCCN)C(=O)N3)NC(=O)[C@H](C(C)C)NC(=O)[C@H](CC(C)C)NC(=O)[C@H](CC(N)=O)NC(=O)[C@@H]1CCCN1C(=O)[C@H](CCCNC(=N)N)NC2=O [SEQ ID NO: 119, [Asp10]GpTx-1] (H-DCLGFMRKCDPDNDKCCRPNLVCSRTHKWCKYVF-NH2; disulfide 2-17, 9-23, 16-30) | 0.16 µM | – | – | IC50 (hNav1.5; [1]): 11.3 µM
3 | CC[C@H](C)[C@@H]1NC(=O)[C@@H]2CSSC[C@@H]3NC(=O)[C@H](C(C)C)NC(=O)[C@H](CC(C)C)NC(=O)[C@H](CC(N)=O)NC(=O)[C@@H]4CCCN4C(=O)[C@H](CCCNC(=N)N)NC(=O)[C@H](CSSC[C@H](NC(=O)[C@@H](N)CC(=O)O)C(=O)N[C@@H](CC(C)C)C(=O)N[C@@H](C)C(=O)N[C@@H](Cc4ccccc4)C(=O)N[C@@H](CCSC)C(=O)N[C@@H](CCCNC(=N)N)C(=O)N[C@@H](CCCCN)C(=O)N2)NC(=O)[C@H](CSSC[C@@H](C(=O)N[C@@H](CCCCN)C(=O)N[C@@H](Cc2ccc(O)cc2)C(=O)N[C@H](C(=O)N[C@@H](Cc2ccccc2)C(N)=O)C(C)C)NC(=O)[C@H](Cc2c[nH]c4ccccc24)NC(=O)[C@H](CCCCN)NC(=O)[C@H](Cc2cnc[nH]2)NC(=O)[C@H]([C@@H](C)O)NC(=O)[C@H](CCCNC(=N)N)NC(=O)[C@H](CO)NC3=O)NC(=O)[C@H](CCCCN)NC(=O)[C@H](CC(=O)O)NC(=O)[C@H](CC(N)=O)NC(=O)[C@H](CC(=O)O)NC(=O)[C@@H]2CCCN2C1=O [SEQ ID NO: 141] (H-DCLAFMRKCIPDNDKCCRPNLVCSRTHKWCKYVF-NH2; disulfide 2-17, 9-23, 16-30) | – | 0.21 µM | – | IC50 (hNav1.5; IWQ Use Nav1.5): 11.3 µM
4 | CC[C@H](C)[C@@H]1NC(=O)[C@@H]2CSSC[C@@H]3NC(=O)[C@H](C(C)C)NC(=O)[C@H](CC(C)C)NC(=O)[C@H](CC(N)=O)NC(=O)[C@@H]4CCCN4C(=O)[C@H](CCCNC(=N)N)NC(=O)[C@H](CSSC[C@H](NC(=O)[C@@H](N)CC(=O)O)C(=O)N[C@@H](CC(C)C)C(=O)NCC(=O)N[C@@H](Cc4ccccc4)C(=O)N[C@@H](CCC(=O)O)C(=O)N[C@@H](CCCNC(=N)N)C(=O)N[C@@H](CCCCN)C(=O)N2)NC(=O)[C@H](CSSC[C@@H](C(=O)N[C@@H](CCCCN)C(=O)N[C@@H](Cc2ccc(O)cc2)C(=O)N[C@H](C(=O)N[C@@H](Cc2ccccc2)C(N)=O)C(C)C)NC(=O)[C@H](Cc2c[nH]c4ccccc24)NC(=O)[C@H](CCCCN)NC(=O)[C@H](Cc2cnc[nH]2)NC(=O)[C@H]([C@@H](C)O)NC(=O)[C@H](CCCNC(=N)N)NC(=O)[C@H](CO)NC3=O)NC(=O)[C@H](CCCCN)NC(=O)[C@H](CC(=O)O)NC(=O)[C@H](CC(N)=O)NC(=O)[C@H](CC(=O)O)NC(=O)[C@@H]2CCCN2C1=O [SEQ ID NO: 144] (H-DCLGFERKCIPDNDKCCRPNLVCSRTHKWCKYVF-NH2; disulfide 2-17, 9-23, 16-30) | – | 20.4 µM | 9.39 µM | –
5 | CSCC[C@@H]1NC(=O)[C@H](Cc2ccccc2)NC(=O)CNC(=O)[C@H](CC(C)C)NC(=O)[C@@H](NC(=O)[C@@H](N)CC(=O)O)CSSC[C@@H]2NC(=O)[C@@H]3CSSC[C@@H](C(=O)N[C@@H](CCCCN)C(=O)N[C@@H](Cc4ccc(O)cc4)C(=O)N[C@H](C(=O)N[C@@H](Cc4ccccc4)C(N)=O)C(C)C)NC(=O)[C@H](Cc4c[nH]c5ccccc45)NC(=O)[C@H](CCCCN)NC(=O)[C@H](Cc4cnc[nH]4)NC(=O)[C@H]([C@@H](C)O)NC(=O)[C@H](CCCNC(=N)N)NC(=O)[C@H](CO)NC(=O)[C@H](CSSC[C@H](NC(=O)[C@H](CCCCN)NC(=O)[C@H](CCCNC(=N)N)NC1=O)C(=O)N[C@@H](CCC(=O)O)C(=O)N1CCC[C@H]1C(=O)N[C@@H](CC(=O)O)C(=O)N[C@@H](CC(N)=O)C(=O)N[C@@H](CC(=O)O)C(=O)N[C@@H](CCCCN)C(=O)N3)NC(=O)[C@H](C(C)C)NC(=O)[C@H](CC(C)C)NC(=O)[C@H](CC(N)=O)NC(=O)[C@@H]1CCCN1C(=O)[C@H](CCCNC(=N)N)NC2=O [SEQ ID NO: 146, [Glu10]GpTx-1] (H-DCLGFMRKCEPDNDKCCRPNLVCSRTHKWCKYVF-NH2; disulfide 2-17, 9-23, 16-30) | 0.15 µM | – | – | IC50 (hNav1.5; [1]): 9.55 µM
6 | CC[C@H](C)[C@@H]1NC(=O)[C@@H]2CSSC[C@@H]3NC(=O)[C@H](C(C)C)NC(=O)[C@H](CC(C)C)NC(=O)[C@H](CC(N)=O)NC(=O)[C@@H]4CCCN4C(=O)[C@H](CCCNC(=N)N)NC(=O)[C@H](CSSC[C@H](NC(=O)[C@@H](N)CC(=O)O)C(=O)N[C@@H](CC(C)C)C(=O)NCC(=O)N[C@@H](Cc4ccccc4)C(=O)N[C@@H](CCSC)C(=O)N[C@@H](CCCNC(=N)N)C(=O)N[C@@H](CCCCN)C(=O)N2)NC(=O)[C@H](CSSC[C@@H](C(=O)N[C@@H](CCCCN)C(=O)N[C@@H](Cc2ccc(O)cc2)C(=O)N[C@H](C(=O)N[C@@H](Cc2ccccc2)C(N)=O)C(C)C)NC(=O)[C@H](Cc2c[nH]c4ccccc24)NC(=O)[C@H](CCCCN)NC(=O)[C@H](Cc2cnc[nH]2)NC(=O)[C@H]([C@@H](C)O)NC(=O)[C@H](CCCNC(=N)N)NC(=O)[C@H](CO)NC3=O)NC(=O)[C@H](CCCCN)NC(=O)[C@H](CC(=O)O)NC(=O)[C@H](CC(N)=O)NC(=O)[C@H](CC(=O)O)NC(=O)[C@H](CCC(=O)O)NC1=O [SEQ ID NO: 147, [Glu11]GpTx-1] (H-DCLGFMRKCIEDNDKCCRPNLVCSRTHKWCKYVF-NH2; disulfide 2-17, 9-23, 16-30) | 0.21 µM | – | – | IC50 (hNav1.5; IWQ Use Nav1.5 (μM)): 15.6 µM
7 | CC[C@H](C)[C@@H]1NC(=O)[C@@H]2CSSC[C@@H]3NC(=O)[C@H](C(C)C)NC(=O)[C@H](CC(C)C)NC(=O)[C@H](CC(N)=O)NC(=O)[C@@H]4CCCN4C(=O)[C@H](CCCNC(=N)N)NC(=O)[C@H](CSSC[C@H](NC(=O)[C@@H](N)CC(=O)O)C(=O)N[C@@H](CCCNC(=N)N)C(=O)NCC(=O)N[C@@H](Cc4ccccc4)C(=O)N[C@@H](CCSC)C(=O)N[C@@H](CCCNC(=N)N)C(=O)N[C@@H](CCCCN)C(=O)N2)NC(=O)[C@H](CSSC[C@@H](C(=O)N[C@@H](CCCCN)C(=O)N[C@@H](Cc2ccc(O)cc2)C(=O)N[C@H](C(=O)N[C@@H](Cc2ccccc2)C(N)=O)C(C)C)NC(=O)[C@H](Cc2c[nH]c4ccccc24)NC(=O)[C@H](CCCCN)NC(=O)[C@H](Cc2cnc[nH]2)NC(=O)[C@H]([C@@H](C)O)NC(=O)[C@H](CCCNC(=N)N)NC(=O)[C@H](CO)NC3=O)NC(=O)[C@H](CCCCN)NC(=O)[C@H](CC(=O)O)NC(=O)[C@H](CC(N)=O)NC(=O)[C@H](CC(=O)O)NC(=O)[C@@H]2CCCN2C1=O [SEQ ID NO: 155] (H-DCRGFMRKCIPDNDKCCRPNLVCSRTHKWCKYVF-NH2; disulfide 2-17, 9-23, 16-30) | – | 0.05 µM | 8.45 µM | –
8 | CC[C@H](C)[C@@H]1NC(=O)[C@@H]2CSSC[C@@H]3NC(=O)[C@H](C(C)C)NC(=O)[C@H](CC(C)C)NC(=O)[C@H](CC(N)=O)NC(=O)[C@@H]4CCCN4C(=O)[C@H](CCCNC(=N)N)NC(=O)[C@H](CSSC[C@H](NC(=O)[C@@H](N)CC(=O)O)C(=O)N[C@@H](CC(C)C)C(=O)NCC(=O)N[C@@H](CCCNC(=N)N)C(=O)N[C@@H](CCSC)C(=O)N[C@@H](CCCNC(=N)N)C(=O)N[C@@H](CCCCN)C(=O)N2)NC(=O)[C@H](CSSC[C@@H](C(=O)N[C@@H](CCCCN)C(=O)N[C@@H](Cc2ccc(O)cc2)C(=O)N[C@H](C(=O)N[C@@H](Cc2ccccc2)C(N)=O)C(C)C)NC(=O)[C@H](Cc2c[nH]c4ccccc24)NC(=O)[C@H](CCCCN)NC(=O)[C@H](Cc2cnc[nH]2)NC(=O)[C@H]([C@@H](C)O)NC(=O)[C@H](CCCNC(=N)N)NC(=O)[C@H](CO)NC3=O)NC(=O)[C@H](CCCCN)NC(=O)[C@H](CC(=O)O)NC(=O)[C@H](CC(N)=O)NC(=O)[C@H](CC(=O)O)NC(=O)[C@@H]2CCCN2C1=O [SEQ ID NO: 156] (H-DCLGRMRKCIPDNDKCCRPNLVCSRTHKWCKYVF-NH2; disulfide 2-17, 9-23, 16-30) | – | 4.09 µM | 12.6 µM | –
